Laboratory results as given in paper PMC5053523, “In Vitro Antibacterial Activity of Rhodanine Derivatives against Pathogenic Clinical Isolates” (PLoS ONE, 2016).
Converted amounts (≈) assume the structure as drawn. Where two headings read alike, the source gives them in different places.

Key:
Klebsiella pneumoniae = assay: MIC with/without PMBN, Klebsiella pneumoniae; assay type: cell-based
Method: (§1) The MIC of the rhodanines and control antibiotics, in the presence of a sub-inhibitory concentration of colistin or polymixin B nonapeptide (PMBN), against Gram-negative bacteria was evaluated as described before. The antibacterial activity of the rhodanines was further investigated against E. coli SM1411Δ acrAB, a strain that is deficient in the multidrug-resistant AcrAB efflux pump, as described before.

Pseudomonas aeruginosa = assay: MIC with/without PMBN, Pseudomonas aeruginosa; assay type: cell-based
Method: as §1

Acinetobacter baumannii = assay: MIC with/without sub-MIC colistin, Acinetobacter baumannii; assay type: cell-based
Method: as §1

[1] = test system: vancomycin resistant enterococci (VRE) E. faecium; assay: Broth microdilution MIC/MBC, VRE E. faecium; assay type: cell-based; conditions: for MIC: read-out: MIC
Bacillus Strains = assay: Broth microdilution MIC50/MIC90 and MIC range, Bacillus strains panel; assay type: cell-based, Bacillus spp.; conditions: 10 Bacillus strains
Excerpt: The broth microdilution technique was used, followed by subculturing on agar plates that were rhodanine—free. […] The MICs reported represent the lowest concentration of each compound necessary to inhibit bacterial growth and the MBCs represent the lowest concentration required to reduce the initial bacterial inoculum by ≥ 99.9%.

[2] = test system: vancomycin resistant enterococci (VRE) E. faecalis; assay: Broth microdilution MIC/MBC, VRE E. faecalis; assay type: cell-based; conditions: for MIC: read-out: MIC
[3] = E. faecium HM 968 Strain ERV102
[4] = E. faecium NR31914 Strain E0120
[5] = E. faecium Patient #1–1 NR-31903
[6] = E. faecalis NR31972 Strain SF 28073

`CC(=O)NC[C@H]1CN(c2ccc(N3CCOCC3)c(F)c2)C(=O)O1` [Linezolid, linezolid, reference compound] was tested, and the MIC (Klebsiella pneumoniae; Klebsiella pneumoniae ATCC BAA 1706, PMBN (+) 4 μg/mL) was >64 µM, the MIC (Klebsiella pneumoniae; Klebsiella pneumoniae ATCC BAA 2146, PMBN (+) 4 μg/mL) was >64 µM and the MIC (Klebsiella pneumoniae; Klebsiella pneumoniae, BAA1706) was > 128 µM. For the same compound, the MIC (Klebsiella pneumoniae; Klebsiella pneumoniae, BAA2146) was > 128 µM, the MIC (Pseudomonas aeruginosa; Pseudomonas aeruginosa ATCC 9721, PMBN (+) 4 μg/mL, read-out: MIC) was 16 µM (≈ 5.4 µg/mL) and the MIC (Pseudomonas aeruginosa; Pseudomonas aeruginosa, ATCC9721) was > 128 µM. For the same compound, the MIC (Acinetobacter baumannii; Acinetobacter baumannii ATCC BAA747, colistin (+) […], read-out: MIC) was >64 µM, the MIC (Acinetobacter baumannii; Acinetobacter baumannii ATCC BAA19606, colistin (+) […], read-out: MIC) was >64 µM and the MIC (Acinetobacter baumannii; Acinetobacter baumannii, ATCCBAA747) was > 128 µM. The MIC (Acinetobacter baumannii; Acinetobacter baumannii, ATCCBAA19606) was > 128 µM, the MBC ([1]; E. faecium E417 HM-965) was > 64 µM and the MIC ([1]; E. faecium E417 HM-965) was 2 µM (≈ 0.675 µg/mL). The MBC ([1]; E. faecium E1071 NR-28978) was > 64 µM, the MIC ([1]; E. faecium E1071 NR-28978) was 2 µM (≈ 0.675 µg/mL) and the MBC [1, 3] was > 64 µM. For the same compound, the MIC [1, 3] was 2 µM (≈ 0.675 µg/mL), the MBC [1, 4] was > 64 µM and the MIC [1, 4] was 2 µM (≈ 0.675 µg/mL). The MBC [1, 5] was > 64 µM, the MIC [1, 5] was 16 µM (≈ 5.4 µg/mL) and the MIC50 (Bacillus Strains) was 1 µM (≈ 0.337 µg/mL). The MIC90 (Bacillus Strains) was 2 µM (≈ 0.675 µg/mL), the MBC ([2]; E. faecalis ERV103 HM-934) was > 64 µM and the MIC ([2]; E. faecalis ERV103 HM-934) was 2 µM (≈ 0.675 µg/mL). It also gave an MBC [2, 6] of 32 µM (≈ 10.8 µg/mL), an MIC [2, 6] of 2 µM (≈ 0.675 µg/mL) and an MBC ([2]; E. faecalis R712 HM-335) of 32 µM (≈ 10.8 µg/mL). For the same compound, the MIC ([2]; E. faecalis R712 HM-335) was 2 µM (≈ 0.675 µg/mL), the MBC ([2]; E. faecalis S613 HM-334) was 64 µM (≈ 21.6 µg/mL) and the MIC ([2]; E. faecalis S613 HM-334) was 2 µM (≈ 0.675 µg/mL). The MBC ([2]; E. faecalis TX0104 HM-201) was > 64 µM and the MIC ([2]; E. faecalis TX0104 HM-201) was 2 µM (≈ 0.675 µg/mL).
